Reference: PubChem BioAssay (NCI)
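A five-concentration, 48-hour dose response in 96-well plates underlies each endpoint, interpolated linearly between surrounding concentrations. TGI: total growth inhibition.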

Experiments:
Assay in all cases: inhibition of tumour cell growth, NCI panel, 48 h
786-0 renal = system: 786-0 renal
A549 NSCLC = system: A549 NSCLC
ACHN renal = system: ACHN renal
BT-549 breast = system: BT-549 breast
CAKI-1 renal = system: CAKI-1 renal
CCRF-CEM leukemia = system: CCRF-CEM leukemia
COLO 205 colon = system: COLO 205 colon
DU-145 prostate = system: DU-145 prostate
EKVX NSCLC = system: EKVX NSCLC
HCC-2998 colon = system: HCC-2998 colon
HCT-116 colon = system: HCT-116 colon
HCT-15 colon = system: HCT-15 colon
HL-60(TB) leukemia = system: HL-60(TB) leukemia
HOP-62 NSCLC = system: HOP-62 NSCLC
HOP-92 NSCLC = system: HOP-92 NSCLC
HS 578T breast = system: HS 578T breast
HT29 colon = system: HT29 colon
IGROV1 ovarian = system: IGROV1 ovarian
K-562 leukemia = system: K-562 leukemia
KM12 colon = system: KM12 colon
LOX IMVI melanoma = system: LOX IMVI melanoma
M14 melanoma = system: M14 melanoma
MALME-3M melanoma = system: MALME-3M melanoma
MCF7 breast = system: MCF7 breast
MDA-MB-231 breast = system: MDA-MB-231 breast
MDA-MB-435 = system: MDA-MB-435
MDA-N = system: MDA-N
MOLT-4 leukemia = system: MOLT-4 leukemia
NCI-H226 lung = system: NCI-H226 lung
NCI-H23 lung = system: NCI-H23 lung
NCI-H522 lung = system: NCI-H522 lung
OVCAR-3 ovarian = system: OVCAR-3 ovarian
OVCAR-4 ovarian = system: OVCAR-4 ovarian
OVCAR-5 ovarian = system: OVCAR-5 ovarian
OVCAR-8 ovarian = system: OVCAR-8 ovarian
PC-3 prostate = system: PC-3 prostate
RPMI-8226 leukemia = system: RPMI-8226 leukemia
RXF 393 renal = system: RXF 393 renal
SF-268 CNS = system: SF-268 CNS
SF-295 CNS = system: SF-295 CNS
SF-539 CNS = system: SF-539 CNS
SK-MEL-2 melanoma = system: SK-MEL-2 melanoma
SK-MEL-28 melanoma = system: SK-MEL-28 melanoma
SK-MEL-5 melanoma = system: SK-MEL-5 melanoma
SN12C renal = system: SN12C renal
SNB-19 CNS = system: SNB-19 CNS
SNB-75 CNS = system: SNB-75 CNS
SR leukemia = system: SR leukemia
SW-620 colon = system: SW-620 colon
TK-10 renal = system: TK-10 renal
U251 CNS = system: U251 CNS
UACC-257 melanoma = system: UACC-257 melanoma
UO-31 renal = system: UO-31 renal
NCI-H460 lung = system: NCI-H460 lung
NCI/ADR-RES ovarian = system: NCI/ADR-RES ovarian
A498 renal = system: A498 renal
SK-OV-3 ovarian = system: SK-OV-3 ovarian
UACC-62 melanoma = system: UACC-62 melanoma

Measured: TGI

CC(=O)OCCOCn1c2c(c(=O)[nH]c1=O)CCC2
not listed: NCI-H460 lung | NCI/ADR-RES ovarian | A498 renal | SK-OV-3 ovarian | UACC-62 melanoma
> 100 µM: all other assays above

CC(C(=O)O)c1ccc(-n2nnc3c(=O)[nH][nH]c(=O)c32)cc1 (stereo unspecified)
not listed: 786-0 renal | HOP-92 NSCLC | HS 578T breast | HT29 colon | IGROV1 ovarian | NCI-H226 lung | NCI-H522 lung | RXF 393 renal | SF-268 CNS | SF-539 CNS | SNB-75 CNS | SW-620 colon | A498 renal | SK-OV-3 ovarian | UACC-62 melanoma
> 100 µM: all other assays above

CC(=O)NC(CC(C)C)C(=O)NC(CC(C)C)C(=O)NC(C=O)CCCN=C(N)N (stereo unspecified)
not listed: HL-60(TB) leukemia | HS 578T breast | RXF 393 renal
> 100 µM: all other assays above
